# Patent publication US20240299328A1, “COMPOSITIONS COMPRISING 15-HEPE AND METHODS OF TREATING AND/OR PREVENTING HEMATOLOGIC DISORDERS AND RELATED DISEASES” (Afimmune Limited, priority 2023, published 2024)
# Read-outs that look alike come from different tables or passages of the source.
# Key:
# [1] = tested on: UUO mice; type: in vivo
# Procedure: UUO Surgery: On day 0 of the study, UUO surgery was performed on mice under pentobarbital sodium anesthesia. The mouse's hair was first shaved and then abdomen cut open to exteriorize the mouse's left ureter. The ureter was ligated 4-0 nylon sutures at two points. The mouse's peritoneum and skin were then closed with sutures, and the mouse transferred to a clean cage until recovered from the anesthesia. Sham operated mice had their left ureter exposed but not ligated. […]
# (§1) Animals: Seven-week-old female C57BL/6 mice (i.e., animals) were obtained and were housed and fed with a normal diet under controlled conditions. The animals were maintained in a specific-pathogen free (SPF) facility under controlled conditions of temperature (e.g., 23±2° C.), humidity (e.g., 45±10%), lighting (e.g., 12-hour artificial light and dark cycles; light from 8:00 to 20:00) and air exchange. A high pressure was maintained in the experimental room to prevent contamination of the facility. The animals were housed in TPX cages with a maximum of 4 mice per cage. Sterilized Paper-Clean was used for bedding and replaced once a week. Sterilized solid normal diet was provided ad libitum, being placed in a metal lid on the top of the cage. Pure water was also provided ad libitum from a water bottle equipped with a rubber stopper and a sipper tube. Water bottles were replaced once a week, cleaned, and sterilized in an autoclave and reused. Mice were identified by ear punch and each cage was labeled with a specific identification code.
# (§2) Animal Monitoring and Sacrifice: The viability, clinical signs and behavior for the mice were monitored daily. Individual body weight was measured daily before treatment during the treatment period. […] The animals were sacrificed by exsanguination through direct cardiac puncture under isoflurane anesthesia at Day 14.
# [2] = tested on: BDL-operated mice; type: in vivo
# Procedure: BDL Surgery: On Day 0 of the study, BDL surgery was performed under pentobarbital anesthesia. The mouse's hair was first shaved, the abdominal cavity cut open, and the common bile duct was ligated twice with 7-0 surgical silk. The mouse's peritoneum and the skin were closed with sutures, and the mice were transferred to a clean cage (e.g., resting cage) until recovered from anesthesia. Sham operated mice had their common bile duct exposed but not ligated.
# as §1, with “Pathogen-free 6 weeks of age male C57BL/6J” for “Seven-week-old female C57BL/6”, “mice” for “mice (i.e., animals)”, “obtained.” for “obtained and were housed and fed with a normal diet under controlled conditions.”
# as §2, with “sacrificed at Day 14 after BDL surgery” for “sacrificed”, “anesthesia.” for “anesthesia at Day 14.”
# [3] = tested on: TGF-β signaling in HepG2 cells; assay: TGF-β-induced EMT protein expression and type II TGF-β receptor in HepG2 cells; type: cell-based, human; details: liver cell lines (HepG2, LX2)
# Procedure: The effects of 15-HEPE on TGF-β-induced signaling and cellular responses were determined. To test the effect of 15-HEPE on TGF-β-induced signaling, the activities of 15-HEPE to regulate TGF-β-stimulated Smad2 phosphorylation and nuclear translocation, both of which are key signaling events leading to TGF-β-induced cellular responses, were tested. One important biological activity of TGF-β is transcriptional activation of genes responsible for epithelial-mesenchymal transition (EMT), which is a crucial event in wound healing, tissue fibrosis, and cancer progression. The effect of 15-HEPE on TGFβ-induced epithelial mesenchymal transition related proteins (such as fibronectin, PAI-1, and N-cadherin etc.) expression in HepG2 and LXR cells were assessed. HepG2 cells (human hepatoma cell line) were treated in increasing doses of 15-HEPE stage II in DMEM containing 0.1% of FBS for 1 hour and continually stimulated with or without 200 picomolar (pM) of TGF-β for 48 hours. […] HepG2 cells (human hepatoma cell line) were treated in increasing doses of 15-HEPE stage II in DMEM containing 0.1% of FBS for 1 hour and continually stimulated with or without 200 picomolar (pM) of TGF-β for 48 hours. The two panels shown in FIG. 18A are two separate experiments run under the same experimental conditions.
# [4] = tested on: rats; details: 28-day dose ranging study; cited from earlier work
# [5] = tested on: BDL-operated mice; assay: BDL study: serum biochemistry (ALT, total bilirubin); type: in vivo
# Procedure: Sample Collection: For serum samples, non-fasting blood was collected in serum separate tubes without anticoagulant through direct cardiac puncture and centrifuged at 3,500×g for 4 minutes at 4° C. The superatant was collected and stored at −80° C. for biochemistry (30 μL) and shipping (all the remaining). For liver samples, left lateral lobe was collected and cut into 6 pieces. Two pieces of left lateral lobe were fixed in Bouin's solution and then embedded in paraffin. Samples were stored at room temperature for histological analysis. The other 2 pieces of left lateral lobe were embedded in O.C.T. compound and quick frozen in liquid nitrogen. Samples were stored at −80° C. The remaining pieces of left lateral lobe was snap frozen in liquid nitrogen and stored at −80° C. for gene expression analyses. Right medial lobe, left medial lobe, right lobe and caudate lobe were snap frozen in liquid nitrogen and stored at −80° C. for shipping.
# [6] = 50 mg/kg PO QD Day 0-13, Day 14, mean ± SD
# [7] = 500 mg/kg PO QD Day 0-13, Day 14, mean ± SD
# [8] = 250 mg/kg PO QD Day 0-13, Day 14, mean ± SD
# [9] = DS102 50, 250, 500 mg/kg groups vs Vehicle group
smiles,measurement,setting,value
"CC/C=C\C[C@H](O)/C=C/C=C\C/C=C\C/C=C\CCCC(=O)OCC [DS102, 15(S)-hydroxy-(5Z,8Z,11Z,13E,17Z)-eicosapentaenoic acid ethyl ester]",Body Weight,[1]; [6],18.8 ± 0.6 g
same,Left Kidney Weight,[1]; [6],469 ± 60 mg
same,Right Kidney Weight,[1]; [6],133 ± 10 mg
same,Body Weight,[1]; [7],18.7 ± 0.5 g
same,Left Kidney Weight,[1]; [7],487 ± 108 mg
same,Right Kidney Weight,[1]; [7],136 ± 6 mg
same,Body Weight,[2]; [6],17.4 ± 2.9 g
same,Liver Weight,[2]; [6],1392 ± 328 mg
same,Body Weight,[2]; [8],17.0 ± 2.4 g
same,Liver Weight,[2]; [8],1513 ± 182 mg
same,Body Weight,[2]; [7],16.4 ± 1.6 g
same,mean body weight at any day during the study period,[2]; [9],no significant changes
same,mean body weight on the day of sacrifice,[2]; [9],no significant differences
same,mice found dead before reaching Day 14,"[2]; in the DS102 low, middle and high groups (50, 250, 500 mg/kg), Vehicle three out of 15",seven out of 15
same,TGF-β signaling,[3],directly inhibit
same,oral maximum tolerated dose (MTD),[4],6 g/kg/day
same,Serum ALT,[5]; [6],402 ± 112 U/L
same,Serum Total Bilirubin,[5]; [6],26.8 ± 6.9 mg/dL
same,Serum ALT,[5]; [8],351 ± 155 U/L
same,Serum Total Bilirubin,[5]; [8],23.5 ± 9.8 mg/dL
same,Serum ALT,[5]; [7],383 ± 147 U/L
same,Serum Total Bilirubin,[5]; [7],26.2 ± 6.1 mg/dL
same,serum ALT level,[5]; [9],no significant differences
same,serum total bilirubin level,[5]; [9],no significant differences
